Patent US10722520B2, “Heterocyclic compounds and their use in preventing or treating bacterial infections” (MUTABILIS, priority 2016, dated 2020)

Columns and labels:
Format in all cases: cell-based
[1] = test system: E. coli UFR32; experiment: MIC of ceftazidime (CAZ) at fixed concentration of compound (synergy), broth microdilution; details: MIC of ceftazidime with compound fixed at 4 μg/mL; strain UFR32 (E. coli)
Procedure, shortened: (§1)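 Log-phase bacteria were diluted to a final 5×10^5 cfu/mL in cation-adjusted Mueller-Hinton broth and incubated 16-20 h at 35° C in ambient air. MIC was taken as the lowest concentration preventing growth, judged visually.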

[2] = test system: E. coli RGN238; experiment: as above; details: MIC of ceftazidime with compound fixed at 4 μg/mL; strain RGN238 (E. coli)
Procedure, shortened: as §1

[3] = test system: K. oxytoca UFR21; experiment: as above; details: MIC of ceftazidime with compound fixed at 4 μg/mL; strain UFR21 (K. oxytoca)
Procedure, shortened: as §1

[4] = test system: E. coli UFR61O; experiment: as above; details: MIC of ceftazidime with compound fixed at 4 μg/mL; strain UFR61O (E. coli)
Procedure, shortened: as §1

[5] = test system: E. cloacae P99; experiment: as above; details: MIC of ceftazidime with compound fixed at 4 μg/mL; strain P99 (E. cloacae)
Procedure, shortened: as §1

[6] = test system: E. cloacae UFR70; experiment: as above; details: MIC of ceftazidime with compound fixed at 4 μg/mL; strain UFR70 (E. cloacae)
Procedure, shortened: as §1

[7] = test system: E. coli 190317; experiment: as above; details: MIC of ceftazidime with compound fixed at 4 μg/mL; strain 190317 (E. coli)
Procedure, shortened: as §1

[8] = test system: K. pneumoniae 160143; experiment: as above; details: MIC of ceftazidime with compound fixed at 4 μg/mL; strain 160143 (K. pneumoniae)
Procedure, shortened: as §1

[9] = test system: K. pneumoniae UFR24; experiment: as above; details: MIC of ceftazidime with compound fixed at 4 μg/mL; strain UFR24 (K. pneumoniae)
Procedure, shortened: as §1

[10] = test system: K. pneumoniae UFR68; experiment: as above; details: MIC of ceftazidime with compound fixed at 4 μg/mL; strain UFR68 (K. pneumoniae)
Procedure, shortened: as §1

[11] = test system: E. coli UFR18; experiment: as above; details: MIC of ceftazidime with compound fixed at 4 μg/mL; strain UFR18 (E. coli)
Procedure, shortened: as §1

[12] = test system: K. pneumoniae 200047; experiment: as above; details: MIC of ceftazidime with compound fixed at 4 μg/mL; strain 200047 (K. pneumoniae)
Procedure, shortened: as §1

[13] = test system: E. coli 131119; experiment: as above; details: MIC of ceftazidime with compound fixed at 4 μg/mL; strain 131119 (E. coli)
Procedure, shortened: as §1

[14] = test system: K. pneumoniae BAA-1898; experiment: as above; details: MIC of ceftazidime with compound fixed at 4 μg/mL; strain BAA-1898 (K. pneumoniae)
Procedure, shortened: as §1

[15] = test system: E. coli UFR41; experiment: as above; details: MIC of ceftazidime with compound fixed at 4 μg/mL; strain UFR41 (E. coli)
Procedure, shortened: as §1

[16] = test system: E. coli UFR39; experiment: as above; details: MIC of ceftazidime with compound fixed at 4 μg/mL; strain UFR39 (E. coli)
Procedure, shortened: as §1

[17] = test system: E. cloacae UFR51; experiment: as above; details: MIC of ceftazidime with compound fixed at 4 μg/mL; strain UFR51 (E. cloacae)
Procedure, shortened: as §1

[18] = test system: E. cloacae 260508; experiment: as above; details: MIC of ceftazidime with compound fixed at 4 μg/mL; strain 260508 (E. cloacae)
Procedure, shortened: as §1

[19] = test system: K. pneumoniae 6299; experiment: as above; details: MIC of ceftazidime with compound fixed at 4 μg/mL; strain 6299 (K. pneumoniae)
Procedure, shortened: as §1

[20] = test system: E. coli UFR74; experiment: as above; details: MIC of ceftazidime with compound fixed at 4 μg/mL; strain UFR74 (E. coli)
Procedure, shortened: as §1

[21] = test system: E. cloacae UFR85; experiment: as above; details: MIC of ceftazidime with compound fixed at 4 μg/mL; strain UFR85 (E. cloacae)
Procedure, shortened: as §1

[22] = test system: P. aeruginosa CIP107051; experiment: as above; details: MIC of ceftazidime with compound fixed at 4 μg/mL; strain CIP107051 (P. aeruginosa)
Procedure, shortened: as §1

[23] = test system: K. pneumoniae UFR77; experiment: as above; details: MIC of ceftazidime with compound fixed at 4 μg/mL; strain UFR77 (K. pneumoniae)
Procedure, shortened: as §1

[24] = test system: E. cloacae P99; experiment: MIC of compound alone, broth microdilution; details: strain P99: E. cloacae, AmpC; for MIC: Enterobacter cloacae, read-out: MIC compounds of the invention alone
Procedure, shortened: as §1

[25] = test system: K. pneumoniae UFR24; experiment: MIC of compound alone, broth microdilution; details: strain UFR24: K. pneumoniae, TEM-1, SHV-2, SHV-11, OXA-1, OXA-48, OXA-47; for MIC: Klebsiella pneumoniae, read-out: MIC compounds of the invention alone
Procedure, shortened: as §1

[26] = test system: K. pneumoniae UFR68; experiment: MIC of compound alone, broth microdilution; details: strain UFR68: K. pneumoniae, TEM-1, SHV-11, CTX-M-15, KPC-3; for MIC: Klebsiella pneumoniae, read-out: MIC compounds of the invention alone
Procedure, shortened: as §1

[27] = test system: K. pneumoniae BAA-1898; experiment: MIC of compound alone, broth microdilution; details: strain BAA-1898: K. pneumoniae, TEM-1, SHV-11, SHV-12, KPC-2; for MIC: Klebsiella pneumoniae, BAA1898, read-out: MIC compounds of the invention alone
Procedure, shortened: as §1

[28] = test system: E. cloacae UFR51; experiment: MIC of compound alone, broth microdilution; details: strain UFR51: E. cloacae, SHV-12, IMP-8; for MIC: Enterobacter cloacae, read-out: MIC compounds of the invention alone
Procedure, shortened: as §1

[29] = test system: E. cloacae 260508; experiment: MIC of compound alone, broth microdilution; details: strain 260508: E. cloacae, TEM-1, CTX-M-15; for MIC: Enterobacter cloacae, read-out: MIC compounds of the invention alone
Procedure, shortened: as §1

O=C1N2CC(n3ccnn3)=CC(C2)N1OS(=O)(=O)[O-].[Na+] (stereo not drawn) [Example 2, sodium [7-oxo-3-(triazol-1-yl)-1,6-diazabicyclo[3.2.1]oct-3-en-6-yl]sulfate]
4 µg/mL: MIC compounds of the invention alone [25] | MIC compounds of the invention alone [26]
2 µg/mL: MIC compounds of the invention alone [27] | MIC compounds of the invention alone [28] | MIC compounds of the invention alone [29]
4: MIC combination of CAZ and compounds of the invention at 4 μg/mL [22]
≤0.25: MIC combination of CAZ and compounds of the invention at 4 μg/mL [9]
<0.25: MIC combination of CAZ and compounds of the invention at 4 μg/mL [1] | MIC combination of CAZ and compounds of the invention at 4 μg/mL [2] | MIC combination of CAZ and compounds of the invention at 4 μg/mL [3] | MIC combination of CAZ and compounds of the invention at 4 μg/mL [4] | MIC combination of CAZ and compounds of the invention at 4 μg/mL [5] | MIC combination of CAZ and compounds of the invention at 4 μg/mL [6] | MIC combination of CAZ and compounds of the invention at 4 μg/mL [7] | MIC combination of CAZ and compounds of the invention at 4 μg/mL [8] | MIC combination of CAZ and compounds of the invention at 4 μg/mL [10] | MIC combination of CAZ and compounds of the invention at 4 μg/mL [11] | MIC combination of CAZ and compounds of the invention at 4 μg/mL [12] | MIC combination of CAZ and compounds of the invention at 4 μg/mL [13] | MIC combination of CAZ and compounds of the invention at 4 μg/mL [14] | MIC combination of CAZ and compounds of the invention at 4 μg/mL [15] | MIC combination of CAZ and compounds of the invention at 4 μg/mL [16] | MIC combination of CAZ and compounds of the invention at 4 μg/mL [17] | MIC combination of CAZ and compounds of the invention at 4 μg/mL [18] | MIC combination of CAZ and compounds of the invention at 4 μg/mL [19] | MIC combination of CAZ and compounds of the invention at 4 μg/mL [20] | MIC combination of CAZ and compounds of the invention at 4 μg/mL [21] | MIC combination of CAZ and compounds of the invention at 4 μg/mL [23]
1 µg/mL: MIC compounds of the invention alone [24]

O=C1N2CC(n3ccnn3)=C[C@H](C2)N1OS(=O)(=O)O [Example 6, sodium [(5R)-7-oxo-3-(triazol-1-yl)-1,6-diazabicyclo[3.2.1]oct-3-en-6-yl]sulfate]
1 µg/mL: MIC [24] | MIC [25] | MIC [26] | MIC [28] | MIC [29]
4: MIC combination of CAZ and compounds of the invention at 4 μg/mL [22]
<0.25: MIC combination of CAZ and compounds of the invention at 4 μg/mL [1] | MIC combination of CAZ and compounds of the invention at 4 μg/mL [2] | MIC combination of CAZ and compounds of the invention at 4 μg/mL [3] | MIC combination of CAZ and compounds of the invention at 4 μg/mL [4] | MIC combination of CAZ and compounds of the invention at 4 μg/mL [5] | MIC combination of CAZ and compounds of the invention at 4 μg/mL [6] | MIC combination of CAZ and compounds of the invention at 4 μg/mL [7] | MIC combination of CAZ and compounds of the invention at 4 μg/mL [8] | MIC combination of CAZ and compounds of the invention at 4 μg/mL [9] | MIC combination of CAZ and compounds of the invention at 4 μg/mL [10] | MIC combination of CAZ and compounds of the invention at 4 μg/mL [11] | MIC combination of CAZ and compounds of the invention at 4 μg/mL [12] | MIC combination of CAZ and compounds of the invention at 4 μg/mL [13] | MIC combination of CAZ and compounds of the invention at 4 μg/mL [14] | MIC combination of CAZ and compounds of the invention at 4 μg/mL [15] | MIC combination of CAZ and compounds of the invention at 4 μg/mL [16] | MIC combination of CAZ and compounds of the invention at 4 μg/mL [17] | MIC combination of CAZ and compounds of the invention at 4 μg/mL [18] | MIC combination of CAZ and compounds of the invention at 4 μg/mL [19] | MIC combination of CAZ and compounds of the invention at 4 μg/mL [20] | MIC combination of CAZ and compounds of the invention at 4 μg/mL [21] | MIC combination of CAZ and compounds of the invention at 4 μg/mL [23]
2 µg/mL: MIC [27]

O=C1N2CC(n3nccn3)=CC(C2)N1OS(=O)(=O)O (stereo not drawn) [Example 3, sodium [7-oxo-3-(triazol-2-yl)-1,6-diazabicyclo[3.2.1]oct-3-en-6-yl]sulfate]
4: MIC combination of CAZ and compounds of the invention at 4 μg/mL [22]
≤0.25: MIC combination of CAZ and compounds of the invention at 4 μg/mL [4] | MIC combination of CAZ and compounds of the invention at 4 μg/mL [5] | MIC combination of CAZ and compounds of the invention at 4 μg/mL [9]
<0.25: MIC combination of CAZ and compounds of the invention at 4 μg/mL [1] | MIC combination of CAZ and compounds of the invention at 4 μg/mL [2] | MIC combination of CAZ and compounds of the invention at 4 μg/mL [6] | MIC combination of CAZ and compounds of the invention at 4 μg/mL [7] | MIC combination of CAZ and compounds of the invention at 4 μg/mL [8] | MIC combination of CAZ and compounds of the invention at 4 μg/mL [11] | MIC combination of CAZ and compounds of the invention at 4 μg/mL [12] | MIC combination of CAZ and compounds of the invention at 4 μg/mL [13] | MIC combination of CAZ and compounds of the invention at 4 μg/mL [17] | MIC combination of CAZ and compounds of the invention at 4 μg/mL [18] | MIC combination of CAZ and compounds of the invention at 4 μg/mL [19] | MIC combination of CAZ and compounds of the invention at 4 μg/mL [20] | MIC combination of CAZ and compounds of the invention at 4 μg/mL [21] | MIC combination of CAZ and compounds of the invention at 4 μg/mL [23]
4 µg/mL: MIC [29]
0.5: MIC combination of CAZ and compounds of the invention at 4 μg/mL [3] | MIC combination of CAZ and compounds of the invention at 4 μg/mL [10] | MIC combination of CAZ and compounds of the invention at 4 μg/mL [14]
>128: MIC combination of CAZ and compounds of the invention at 4 μg/mL [15] | MIC combination of CAZ and compounds of the invention at 4 μg/mL [16]
2 µg/mL: MIC [28]
8 µg/mL: MIC [24] | MIC [25] | MIC [26] | MIC [27]
